Results: article PMC7482797 (2020)

Key:
[1] = tested on: BCL-2 GQ (DNA, G4) CGGGCGCGGGAGGAATTGGGCGGGAGC; experiment: CD melting; details: 100 mM KCl; 20 mM PBS, pH 7.4; 2 µM GQ, TGP18 at 1:1 (2 µM)
[2] = tested on: TEL22 GQ (DNA, G4) AGGGTTAGGGTTAGGGTTAGGG; experiment: fluorescence lifetime (TCSPC); details: qualitative; lifetime 1.6 ns against 0.26 ns free; three-fold excess DNA over titration end point
[3] = tested on: BCL-2 GQ (DNA, G4) CGGGCGCGGGAGGAATTGGGCGGGAGC; experiment: fluorescence titration, 640 nm; details: 100 mM KCl or NaCl (so in the source); 20 mM PBS, pH 7.4; 1 µM TGP18; one-site fit
[4] = tested on: c-KIT2 GQ (DNA, G4) CGGGCGGGCGCGAGGGAGGGG; experiment: fluorescence titration, 640 nm; details: 100 mM KCl or NaCl (so in the source); 20 mM PBS, pH 7.4; 1 µM TGP18; one-site fit
[5] = tested on: C-MYC GQ (DNA, G4) TGGGGAGGGTGGGGAGGGTGGGGAAGG; experiment: fluorescence titration, 640 nm; details: 100 mM KCl or NaCl (so in the source); 20 mM PBS, pH 7.4; 1 µM TGP18; one-site fit
[6] = tested on: VEGF GQ (DNA, G4) GGGGGCGGGCCGGGGGCGGGGTCCCGGCGGGGCGGAG; experiment: fluorescence titration, 640 nm; details: 100 mM KCl or NaCl (so in the source); 20 mM PBS, pH 7.4; 1 µM TGP18; one-site fit
[7] = tested on: KRAS GQ (DNA, G4) GGGAGGGAGGGAAGGAGGGAGGGAGGGA; experiment: fluorescence titration, 640 nm; details: 100 mM KCl or NaCl (so in the source); 20 mM PBS, pH 7.4; 1 µM TGP18; one-site fit

ΔTm [1]: 8 °C
binding [2]: yes
KD [3]: 728 ± 34 nM
KD [4]: 5500 ± 230 nM
KD [5]: 1500 ± 190 nM
KD [6]: 2120 ± 350 nM
KD [7]: 1300 ± 130 nM
Structure (SMILES): CCN(CC)c1ccc2cc(C=Cc3ccc4ccc5ccc(C)nc5c4[n+]3C)c(=O)oc2c1
